{"source": "ChEMBL document CHEMBL1122776", "about": "“Synthesis and antitumor activity of some aromatic seleno lactones” (J Med Chem, 1984)", "type_in_all_cases": "cell-based", "settings_in_all_cases": "read-out: LD50", "key": {"[1]": {"assay": "In vitro cytotoxic activity against of human colon tumor-8r cells in culture and LD50 was reported at the end of incubation period of 24 hours."}, "[2]": {"assay": "In vitro cytotoxic activity against human colon tumor-8r cells in culture and LD50 was reported at the end of incubation period of 48 hours."}, "[3]": {"assay": "In vitro cytotoxic activity against human colon tumor-8r cells in culture and LD50 was reported at the end of incubation period of 72 hours."}, "[4]": {"assay": "In vitro cytotoxic activity against human colon tumor-8r cells in culture and LD50 was reported at the end of incubation period of 24 hours."}, "[5]": {"assay": "In vitro cytotoxic activity against of human colon tumor-8r cells in culture and LD50 was reported at the end of incubation period of 48 hours."}, "[6]": {"assay": "In vitro cytotoxic activity against of human colon tumor-8r cells in culture and LD50 was reported at the end of incubation period of 72 hours."}}}
{"smiles": "CC(=O)Oc1cccc2c1CC(C[Se]c1ccccc1)C(=O)O2", "note": "(centres undefined)", "values": [{"measurement": "CC50 at 24 h", "setting": "[1]", "result": 290, "unit": "µM"}, {"measurement": "CC50 at 48 h", "setting": "[2]", "result": 240, "unit": "µM"}, {"measurement": "CC50 at 72 h", "setting": "[3]", "result": 180, "unit": "µM"}]}
{"smiles": "CCCCCCCCCC(=O)Oc1cccc2c1CC(C[Se]c1ccccc1)C(=O)O2", "note": "(centres undefined)", "values": [{"measurement": "CC50 at 24 h", "setting": "[4]", "result": 230, "unit": "µM"}, {"measurement": "CC50 at 48 h", "setting": "[2]", "result": 150, "unit": "µM"}, {"measurement": "CC50 at 72 h", "setting": "[3]", "result": 140, "unit": "µM"}]}
{"smiles": "CCC(=O)Oc1cccc2c1CC(C[Se]c1ccccc1)C(=O)O2", "note": "(centres undefined)", "values": [{"measurement": "CC50 at 24 h", "setting": "[4]", "result": 310, "unit": "µM"}, {"measurement": "CC50 at 48 h", "setting": "[5]", "result": 250, "unit": "µM"}, {"measurement": "CC50 at 72 h", "setting": "[6]", "result": 210, "unit": "µM"}]}
{"smiles": "O=C1Oc2cccc(OC3CCCCO3)c2CC1C[Se]c1ccccc1", "note": "(centres undefined)", "values": [{"measurement": "CC50 at 24 h", "setting": "[4]", "result": 260, "unit": "µM"}, {"measurement": "CC50 at 48 h", "setting": "[2]", "result": 190, "unit": "µM"}, {"measurement": "CC50 at 72 h", "setting": "[3]", "result": 150, "unit": "µM"}]}
{"smiles": "CCCCCCCC(=O)Oc1cccc2c1CC(C[Se]c1ccccc1)C(=O)O2", "note": "(centres undefined)", "values": [{"measurement": "CC50 at 48 h", "setting": "[5]", "result": 230, "unit": "µM"}, {"measurement": "CC50 at 24 h", "setting": "[1]", "result": 300, "unit": "µM"}, {"measurement": "CC50 at 72 h", "setting": "[6]", "result": 180, "unit": "µM"}]}
{"smiles": "O=C1Oc2cccc(O)c2CC1C[Se]c1ccccc1", "note": "(centres undefined)", "values": [{"measurement": "CC50 at 24 h", "setting": "[4]", "result": 330, "unit": "µM"}, {"measurement": "CC50 at 48 h", "setting": "[2]", "result": 280, "unit": "µM"}, {"measurement": "CC50 at 72 h", "setting": "[3]", "result": 230, "unit": "µM"}]}
{"smiles": "CCCC(=O)Oc1cccc2c1CC(C[Se]c1ccccc1)C(=O)O2", "note": "(centres undefined)", "values": [{"measurement": "CC50 at 24 h", "setting": "[4]", "result": 370, "unit": "µM"}, {"measurement": "CC50 at 48 h", "setting": "[2]", "result": 270, "unit": "µM"}, {"measurement": "CC50 at 72 h", "setting": "[3]", "result": 320, "unit": "µM"}]}
{"smiles": "Sc1ncnc2nc[nH]c12", "note": "[MERCAPTOPURINE ANHYDROUS]", "values": [{"measurement": "CC50 at 24 h", "setting": "[4]", "result": 760, "unit": "µM"}, {"measurement": "CC50 at 48 h", "setting": "[2]", "result": 350, "unit": "µM"}, {"measurement": "CC50 at 72 h", "setting": "[3]", "result": 280, "unit": "µM"}]}
